From ChEMBL document CHEMBL1201862, “PubChem BioAssay data set” (2004)
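Interpolation was linear, between the two tested concentrations surrounding the appropriate level; five concentrations were tested over 48 hours in 96-well plates. GI50 = concentration required for 50% inhibition of growth.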 Active and inactive are the calls of the source. Rule as the data show it: active = GI50 up to about 1.1 µM and inactive = higher.

How the values were obtained:
Experiment in all cases: DTP human tumour cell line panel, 48 h
IGROV-1 = test system: IGROV-1
OVCAR-3 = test system: OVCAR-3
EKVX = test system: EKVX
SK-MEL-5 = test system: SK-MEL-5
ACHN = test system: ACHN
Malme-3M = test system: Malme-3M
NCI-H23 = test system: NCI-H23
MDA-MB-231 = test system: MDA-MB-231
A498 = test system: A498
KM12 = test system: KM12
T47D = test system: T47D
SNB-19 = test system: SNB-19
OVCAR-5 = test system: OVCAR-5
SF-268 = test system: SF-268
SR = test system: SR
HCT-116 = test system: HCT-116
786-0 = test system: 786-0
HCT-15 = test system: HCT-15
CAKI-1 = test system: CAKI-1
SF-539 = test system: SF-539
DU-145 = test system: DU-145
SK-MEL-2 = test system: SK-MEL-2
PC-3 = test system: PC-3
HOP-92 = test system: HOP-92
MOLT-4 = test system: MOLT-4
NCI-H226 = test system: NCI-H226
HT-29 = test system: HT-29
SW-620 = test system: SW-620
K562 = test system: K562
HOP-62 = test system: HOP-62
SN12C = test system: SN12C
CCRF-CEM = test system: CCRF-CEM
OVCAR-8 = test system: OVCAR-8
UO-31 = test system: UO-31
MCF7 = test system: MCF7
MDA-N = test system: MDA-N
SF-295 = test system: SF-295
UACC-62 = test system: UACC-62
TK-10 = test system: TK-10
M14 = test system: M14
NCI/ADR-RES = test system: NCI/ADR-RES
OVCAR-4 = test system: OVCAR-4
SK-OV-3 = test system: SK-OV-3
COLO 205 = test system: COLO 205
A549 = test system: A549
SK-MEL-28 = test system: SK-MEL-28
MDA-MB-435 = test system: MDA-MB-435
RXF 393 = test system: RXF 393
HCC 2998 = test system: HCC 2998
LOX IMVI = test system: LOX IMVI
U-251 = test system: U-251
NCI-H460 = test system: NCI-H460
NCI-H522 = test system: NCI-H522
BT-549 = test system: BT-549
RPMI-8226 = test system: RPMI-8226
UACC-257 = test system: UACC-257

Measured: GI50

COc1cc2c(cc1OCCCN1C(=O)c3cccc4cccc(c34)C1=O)N=C[C@@H]1CCCN1C2=O
23.1 µM: HCT-15
inactive: IGROV-1 12.2 µM | OVCAR-3 32.8 µM | EKVX > 100 µM | SK-MEL-5 20.4 µM | ACHN 25.7 µM | Malme-3M 19.5 µM | NCI-H23 34 µM | MDA-MB-231 > 55.8 µM | A498 > 100 µM | KM12 16.3 µM | T47D 19.5 µM | SNB-19 > 92 µM | OVCAR-5 > 89.1 µM | SF-268 39.6 µM | SR 1.26 µM | HCT-116 36.1 µM | 786-0 21 µM | CAKI-1 25.4 µM | SF-539 83.6 µM | DU-145 46.1 µM | SK-MEL-2 65.5 µM | PC-3 44.8 µM | HOP-92 22.2 µM | MOLT-4 14 µM | NCI-H226 34.4 µM | HT-29 31.3 µM | SW-620 22.6 µM | K562 22.5 µM | HOP-62 > 86.7 µM | SN12C 48.5 µM | CCRF-CEM 5.65 µM | OVCAR-8 36.6 µM | UO-31 22.5 µM | MCF7 2.47 µM | MDA-N 37.2 µM | SF-295 > 95.1 µM | UACC-62 > 62.7 µM | TK-10 30.3 µM | M14 36.2 µM | NCI/ADR-RES 41.8 µM | OVCAR-4 31.7 µM | SK-OV-3 > 100 µM | COLO 205 18.5 µM | A549 > 100 µM | SK-MEL-28 > 65.9 µM | MDA-MB-435 40.1 µM | RXF 393 14.9 µM | HCC 2998 > 63.7 µM | LOX IMVI 33.9 µM | U-251 39.5 µM | NCI-H460 22.3 µM | NCI-H522 14.3 µM | BT-549 36.6 µM | RPMI-8226 18.2 µM | UACC-257 40.1 µM
